pIC50, pKi: −log10 of the molar value. Values joined by “and” are separate entries in the source; they are usually repeats but may differ in a detail not shown here. Equal entries are not always repeated. Where two headings read alike, the source gives them in different places. Marks after values point to notes of the source that are not given here.
What was measured:
[1] = tested on: Adult male Sprague Dawley rats; assay: DOI-induced headshake response; assay type: in vivo, rat
Protocol: Example 10—DOI-Induced Headshake Response
Adult male Sprague Dawley rats are used. […] DOI (3 mg/kg) is dissolved in saline and administered IP at a dose volume of 1 ml/kg (10 minutes prior to test). Ketanserin (1 mg/kg) is dissolved in saline and injected IP 30 minutes prior to DOI at a dose volume of […].
Rats are then injected with DOI and headshakes are recorded 10 minutes after DOI injection for 10 minutes using video cameras. The headshake response is a rapid, rhythmic shaking of the head in a radial motion. Data is analyzed by ANOVA followed by post hoc analysis where appropriate.

[2] = target: T1, human Serotonin 5-HT2A receptor (Homo sapiens, UniProt P28223); assay: Radioligand binding competition, filtration binding assay, 5-HT2A (labeled ketanserin)
T1 construct: expressed in transfected cells; host or cells: CHO-K1

[3] = target: T2, human Serotonin 5-HT7A receptor (Homo sapiens, UniProt P34969); assay: cAMP HTRF assay, antagonist mode, 5-HT7A; assay type: cell-based
T2 construct: expressed in transfected cells; host or cells: CHO-K1

[4] = target: T1, human Serotonin 5-HT2A receptor; assay: IPOne HTRF assay, agonist mode, 5-HT2A; assay type: cell-based; details: for Top % Activation at maximal concentration, 5-HT2A (agonist mode): % of reference agonist at EC100, average where marked d
Protocol: (§1) SPA ^35S-GTPgS experiments are conducted with membrane preparations. IP-One and cAMP HTRF assays are conducted with recombinant cell lines.
(§2) Agonist activity of test compounds is expressed as a percentage of the activity of the reference agonist at its EC100 concentration. Antagonist activity of the test compound is expressed as a percentage of the inhibition of reference agonist activity at its EC80 concentration.

[5] = target: T2, human Serotonin 5-HT7A receptor; assay: Radioligand binding competition, filtration binding assay, 5-HT7A; details: for pKi: CHO-K1 membranes
Protocol: Radioligand binding experiments are conducted with membrane preparations.

[6] = target: human Dopamine D3 receptor (Homo sapiens, UniProt P35462); details: GTPγS; average where marked d
Protocol: as §1, §2

[7] = target: T3, human Dopamine D4.4 receptor (Homo sapiens, UniProt P21917); details: cAMP; average where marked d
T3 sequence (P21917 1-419): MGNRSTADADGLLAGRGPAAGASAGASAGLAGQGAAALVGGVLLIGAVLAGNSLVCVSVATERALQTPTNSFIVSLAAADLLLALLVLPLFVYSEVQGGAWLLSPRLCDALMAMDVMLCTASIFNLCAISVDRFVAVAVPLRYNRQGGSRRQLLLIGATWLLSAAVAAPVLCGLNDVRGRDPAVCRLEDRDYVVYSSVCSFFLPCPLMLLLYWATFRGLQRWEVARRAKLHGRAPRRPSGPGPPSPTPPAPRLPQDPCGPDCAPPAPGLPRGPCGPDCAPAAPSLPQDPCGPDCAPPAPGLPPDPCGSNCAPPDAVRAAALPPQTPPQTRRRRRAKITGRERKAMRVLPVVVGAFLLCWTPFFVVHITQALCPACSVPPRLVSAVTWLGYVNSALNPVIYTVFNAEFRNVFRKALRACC
Protocol: as §1, §2

[8] = In vitro metabolism, disappearance in pooled cryopreserved human hepatocytes; assay type: in vitro ADME; details: 5 μM; for Disappearance without cells (buffer), 0 min, % / Disappearance without cells (buffer), 60 min, % / Disappearance without cells (buffer), 120 min, %: no cell control / buffer; for Disappearance in human hepatocytes, 0 min, % / Disappearance in human hepatocytes, 60 min, % / Disappearance in human hepatocytes, 120 min, %: with cells
Protocol: Study compounds are investigated in pooled cryopreserved human (mixed gender) hepatocytes. The incubations are performed using 5 μM initial concentration and sampling at 0, 60, and 120 minute time points. The samples are analyzed using UPLC-QE-orbitrap-MS. Incubation volume: 300 μl in 48-well plate. Number of cells: 1 million viable cells/ml. Test compound: 5 μM (stock solution in DMSO). Incubation medium: pH 7.4, Bioreclamation IVT in vitro KHB medium. Shaking: 600 rpm. Time points: 0, 60, and 120 minutes with and without cells. Temperature: 37° C. Sampling volume: 60 μl. DMSO content in incubation: 0.5%. […] Control: verapamil disappearance rate.
Sample preparation for hepatocyte samples: Samples are centrifuged for 20 min at 2272×g at room temperature and pipetted to a UPLC-plate for analysis.

[9] = target: T4, human Serotonin 5-HT1A receptor (Homo sapiens, UniProt P08908); assay: cAMP HTRF assay, agonist mode, 5-HT1A; assay type: cell-based; details: % of reference agonist at EC100, average where marked d
T4 sequence (P08908 1-422): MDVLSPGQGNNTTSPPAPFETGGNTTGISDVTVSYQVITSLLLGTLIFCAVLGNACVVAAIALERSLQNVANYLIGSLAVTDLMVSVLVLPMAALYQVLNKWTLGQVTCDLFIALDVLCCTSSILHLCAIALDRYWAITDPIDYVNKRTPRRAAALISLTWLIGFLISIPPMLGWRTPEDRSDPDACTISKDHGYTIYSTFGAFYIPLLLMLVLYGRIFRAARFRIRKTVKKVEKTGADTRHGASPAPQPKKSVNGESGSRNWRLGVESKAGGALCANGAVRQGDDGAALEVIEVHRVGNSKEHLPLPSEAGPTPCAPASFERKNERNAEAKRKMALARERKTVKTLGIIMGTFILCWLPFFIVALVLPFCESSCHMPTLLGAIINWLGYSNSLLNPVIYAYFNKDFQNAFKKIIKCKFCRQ
Protocol: as §1, §2

[10] = target: T1, human Serotonin 5-HT2A receptor; assay: IPOne HTRF assay, antagonist mode, 5-HT2A; assay type: cell-based; details: IP-one
Protocol: IP-One and cAMP HTRF assays are conducted with recombinant cell lines.
as §2

[11] = target: human Dopamine D2S receptor (Homo sapiens, UniProt P14416)
Protocol: as §1, §2

Adult male Wistar rats = assay: Conditioned Avoidance Response test; assay type: in vivo, rat
Excerpt: Adult male Wistar rats are used.
The Conditioned Avoidance Response (CAR) Test is an animal model screening for antipsychotic drugs.

[12] = tested on: Adult male Sprague Dawley rats; assay: Headshake response; assay type: in vivo, rat
Protocol: Example 9—Headshake Response
Adult male Sprague Dawley rats are used. […] DOI (3 mg/kg) is dissolved in saline and administered IP at a dose volume of 1 ml/kg (10 minutes prior to test).
The headshake response is a rapid, rhythmic shaking of the head in a radial motion. Data are analyzed by ANOVA followed by post hoc analysis where appropriate.

Male Sprague Dawley rats = assay: Touchscreen-based rat Probabilistic Reward Task; assay type: in vivo; details: 1 mg/kg orally, 4-5 hr prior to session
Excerpt: Example 7—Touchscreen-Based Rat Probabilistic Reward Task
The Probabilistic Reward Task (PRT) uses visual discrimination methodology to quantify reward responsiveness to both identify deficits and characterize drug-induced improvements. Groups of rats are trained on the touchscreen-based PRT and exposed to asymmetrical probabilistic contingencies to generate response biases to the richly rewarded stimulus (Pizzagalli, D. et al., Biological Psychiatry, 2005, 57, 319-327; Kangas, B. et al., Translational Psychiatry, 2020, 10(1):285; Wooldridge, L. et al., International Journal of Neuropsychopharmacology, 2021, 24, 409-418).
Male Sprague Dawley rats are used in the present study.
Briefly, a custom-built Plexiglas chamber (25×30×35 cm) is situated in a sound- and light-attenuating enclosure (40×60×45 cm). A 17″ touch-sensitive screen (1739L, ELO TouchSystems, Menlo Park, CA) comprises the inside right-hand wall of the enclosure. An infusion pump (PHM-100-5, Med Associates, St. Albans, VT) outside the enclosure is used to deliver sweetened condensed milk solution into the shallow reservoir of a custom-designed aluminum receptacle. […]
Following line-length discrimination training, probabilistic reinforcement schedules are introduced. […] These probabilistic contingencies are assessed across 5 consecutive sessions prior to initiation of drug testing.

[13] = [3H]-LSD, average where marked c, read-out: Binding 5-HT7A IC50
[14] = numbers in parentheses that were averaged, read-out: Binding 5-HT7A IC50, single determinations
[15] = 2.5 and 5 mg/kg orally, 4 hours prior to test
[16] = 0.5 mg/kg i.p., 30 minutes prior to test

Sequence of human Dopamine D3 receptor (P35462 whole entry): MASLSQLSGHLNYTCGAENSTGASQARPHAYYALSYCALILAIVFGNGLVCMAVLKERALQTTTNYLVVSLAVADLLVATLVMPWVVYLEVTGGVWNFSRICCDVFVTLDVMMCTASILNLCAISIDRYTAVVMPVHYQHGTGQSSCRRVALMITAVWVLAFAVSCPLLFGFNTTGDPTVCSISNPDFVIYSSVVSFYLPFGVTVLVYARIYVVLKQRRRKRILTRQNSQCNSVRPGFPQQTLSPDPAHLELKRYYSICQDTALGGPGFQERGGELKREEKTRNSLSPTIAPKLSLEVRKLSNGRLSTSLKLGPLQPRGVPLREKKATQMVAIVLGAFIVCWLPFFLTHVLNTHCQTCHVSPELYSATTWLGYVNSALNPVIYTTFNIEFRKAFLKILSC
T1 sequence (P28223 whole entry): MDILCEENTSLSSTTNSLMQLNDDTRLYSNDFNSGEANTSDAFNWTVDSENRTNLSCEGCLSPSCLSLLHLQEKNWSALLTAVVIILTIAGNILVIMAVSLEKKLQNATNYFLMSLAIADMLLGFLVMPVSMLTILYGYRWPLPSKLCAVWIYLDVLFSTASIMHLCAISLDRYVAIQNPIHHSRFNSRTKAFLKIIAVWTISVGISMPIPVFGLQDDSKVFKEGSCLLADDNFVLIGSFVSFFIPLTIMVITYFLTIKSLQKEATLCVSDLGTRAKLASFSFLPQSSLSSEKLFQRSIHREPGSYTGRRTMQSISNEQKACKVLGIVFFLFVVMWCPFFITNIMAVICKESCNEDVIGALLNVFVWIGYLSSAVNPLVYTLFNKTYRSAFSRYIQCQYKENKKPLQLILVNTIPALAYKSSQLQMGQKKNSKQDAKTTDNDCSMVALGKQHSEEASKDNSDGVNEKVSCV
T2 sequence (P34969 1-445 isoform P34969-2): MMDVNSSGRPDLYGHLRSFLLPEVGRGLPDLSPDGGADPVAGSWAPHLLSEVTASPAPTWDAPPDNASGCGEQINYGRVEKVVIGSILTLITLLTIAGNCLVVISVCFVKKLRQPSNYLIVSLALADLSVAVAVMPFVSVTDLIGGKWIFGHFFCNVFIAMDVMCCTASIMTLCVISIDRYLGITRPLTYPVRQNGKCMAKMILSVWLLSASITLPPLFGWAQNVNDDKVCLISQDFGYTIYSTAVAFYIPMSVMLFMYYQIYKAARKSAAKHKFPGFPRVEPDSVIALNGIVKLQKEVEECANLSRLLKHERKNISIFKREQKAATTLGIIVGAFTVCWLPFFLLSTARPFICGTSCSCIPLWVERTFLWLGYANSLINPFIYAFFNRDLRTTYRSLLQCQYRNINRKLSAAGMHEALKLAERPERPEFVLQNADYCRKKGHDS
Sequence of human Dopamine D2S receptor (P14416 1-414 isoform P14416-2): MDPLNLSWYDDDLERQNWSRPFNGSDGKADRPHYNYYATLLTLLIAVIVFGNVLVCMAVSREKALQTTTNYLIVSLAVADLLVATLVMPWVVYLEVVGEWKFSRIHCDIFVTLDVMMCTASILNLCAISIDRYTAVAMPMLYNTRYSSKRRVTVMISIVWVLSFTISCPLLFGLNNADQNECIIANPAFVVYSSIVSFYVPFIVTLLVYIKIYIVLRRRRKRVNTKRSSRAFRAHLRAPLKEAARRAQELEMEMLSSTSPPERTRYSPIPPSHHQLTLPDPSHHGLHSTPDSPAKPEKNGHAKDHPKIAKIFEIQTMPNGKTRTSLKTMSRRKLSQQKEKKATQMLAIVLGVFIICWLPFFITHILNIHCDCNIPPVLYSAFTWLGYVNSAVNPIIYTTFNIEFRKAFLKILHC

## O=C(c1ccc(F)cc1)C1CCN(CCn2c(=O)[nH]c3ccccc3c2=O)CC1 [Ketanserin]
[1]; 1 mg/kg IP, 30 minutes prior to DOI 3 mg/kg IP
  DOI-induced headshake responses: significantly attenuate DOI-induced headshake responses

## CCN1CCC[C@@H]1CNC(=O)c1c(OC)ccc(Br)c1OC [R-remoxipride]
[2]
  Binding to the 5-HT2A receptor in vitro (in words): do not even bind

## CNc1cc(OC)c(C(=O)N[C@@H]2CCN(Cc3ccccc3)[C@@H]2C)cc1Cl [cis (R,R) nemonapride, N-[(2R,3R)-1-benzyl-2-methylpyrrolidin-3-yl]-5-chloro-2-methoxy-4-(methylamino)benzamide, reference compound]
[3]
  pIC50: 5.61
[4]; IP-one
  Top % Activation at maximal concentration, 5-HT2A (agonist mode): 44^d %
[5]; [3H]-LSD
  pKi: 6.99
[5]; [13]
  pIC50: 6.89
[5]; [14]
  pIC50: 6.95 and 6.84
[6]
  Top % Inhibition at maximal concentration, D3 (antagonist mode): 99^d %
[7]
  Top % Inhibition at maximal concentration, D4 (antagonist mode): 111^d %
[8]
  Disappearance without cells (buffer), 0 min, %: 100%
  Disappearance without cells (buffer), 60 min, %: 96%
  Disappearance without cells (buffer), 120 min, %: 99%
  Disappearance in human hepatocytes, 0 min, %: 100%
  Disappearance in human hepatocytes, 60 min, %: 10%
  Disappearance in human hepatocytes, 120 min, %: 2%
[9]
  Top % Activation at maximal concentration, 5-HT1A (agonist mode): 78^d %

## CNc1cc(OC)c(C(=O)N[C@H]2CCN(Cc3ccccc3)[C@H]2C)cc1Cl (racemic) [Nemonapride, (±)-cis-N-(1-Benzyl-2-methylpyrrolidin-3-yl)-5-chloro-2-methoxy-4-methylaminobenzamide]
[4]; IP-one
  Top % Activation at maximal concentration, 5-HT2A (agonist mode): 48%
[5]; [3H]-LSD
  pKi: 7.27
[5]; [13]
  pIC50: 7.12
[6]
  Top % Inhibition at maximal concentration, D3 (antagonist mode): 126%
[10]
  Top % Inhibition at maximal concentration, 5-HT2A (antagonist mode): 33%
[9]
  Top % Activation at maximal concentration, 5-HT1A (agonist mode): 52%

## [2H]C([2H])([2H])Nc1cc(OC)c(C(=O)N[C@@H]2CCN(C([2H])([2H])c3ccccc3)[C@@H]2C)cc1Cl [Example 1, 5-Chloro-N-((2R,3R)-1-(dideutero(phenyl)methyl)-2-methylpyrrolidin-3-yl)-2-methoxy-4-(trideuteromethylamino)benzamide]
[3]
  pIC50: < 5.52
[4]; IP-one
  Top % Activation at maximal concentration, 5-HT2A (agonist mode): 69^d %
[4]; IP-one, numbers in parentheses that were averaged, listed as Ex. 1 (A2)
  Top % Activation, 5-HT2A (agonist mode), single determinations: 53% and 82% and 68% and 72%
[4]; compared with non-deuterated analog / summary of Tables 4 and 5
  5-HT2A agonism (in words): 5-HT2A partial agonist and higher 5-HT2A agonism
[5]; [3H]-LSD
  pKi: 7.08
[5]; [13]
  pIC50: 6.88
[5]; [14]
  pIC50: 6.84 and 6.93
[6]
  Top % Inhibition at maximal concentration, D3 (antagonist mode): 122^d %
[11]
  Top % Inhibition, D2S (antagonist mode), single determinations: 93) %
[11]; cAMP, numbers in parentheses that were averaged
  Top % Inhibition, D2S (antagonist mode), single determinations: (104, %
[1]; 1, 5 and 10 mg/kg PO, 4 hours prior, DOI 3 mg/kg IP
  DOI-induced headshake responses: significantly attenuate DOI-induced headshake responses
Adult male Wistar rats; 0.5, 2.5 and 5 mg/kg orally, 4 hours prior to test
  Escape failures compared to vehicle: None of the doses of the deuterated compound of Example 1 (A2) have a significant treatment effect
Adult male Wistar rats; [15]
  Number of avoidance responses compared to vehicle: significantly decrease
  Percent avoidance compared to vehicle: significantly decrease
[7]
  Top % Inhibition at maximal concentration, D4 (antagonist mode): 100^d %
[8]
  Disappearance without cells (buffer), 0 min, %: 100%
  Disappearance without cells (buffer), 60 min, %: 91%
  Disappearance without cells (buffer), 120 min, %: 92%
  Disappearance in human hepatocytes, 0 min, %: 100%
  Disappearance in human hepatocytes, 60 min, %: 8%
  Disappearance in human hepatocytes, 120 min, %: 1%
[12]; 1, 5 and 10 mg/kg PO, 4 hours prior to test
  Number of headshakes compared to vehicle: no significant increase
Male Sprague Dawley rats
  Reward response bias (log b): enhances reward response bias (log b) significantly
[9]
  Top % Activation at maximal concentration, 5-HT1A (agonist mode): 64^d %

## Cc1nc2n(c(=O)c1CCN1CCC(c3noc4cc(F)ccc34)CC1)CCCC2 [risperidone, reference compound]
Adult male Wistar rats; [16]
  Number of avoidance responses compared to vehicle: significantly decrease
  Percent avoidance compared to vehicle: significantly decrease

## COc1cc(CC(C)N)c(OC)cc1I (stereo not drawn) [DOI, reference compound]
[1]; DOI 3 mg/kg IP, 10 minutes prior to test
  Number of headshakes compared to vehicle: significantly increases the number of headshakes
[12]; 3 mg/kg i.p., 10 minutes prior to test
  Number of headshakes compared to vehicle: significantly increases headshake responses

## CCN1CCC[C@H]1CNC(=O)c1c(OC)ccc(Br)c1OC [S-remoxipride]
[2]
  Binding to the 5-HT2A receptor in vitro (in words): do not even bind
